# The source made the active and inactive calls.
# Legend:
# [1] = inhibitors of intracellular T. cruzi replication, confirmation, NIH3T3 host cells, beta-gal luminescence (AID 2044); format: functional, cell-based;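 also: intracellular parasites grown in NIH/3T3 mouse fibroblasts as host cells; luminescent beta-galactosidase reporter signal from transgenic T. cruzi replicating inside host cells; inhibitors lower the luminescence signal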
# Transthyretin = Transthyretin (Homo sapiens, UniProt P02766); assay: Luminescence-based cell-based high throughput dose response assay to identify activators of Transthyretin (TTR) transcription.; format: functional
# [2] = cytotoxicity toward NIH3T3 fibroblasts, dose response, counter-screen, cell-based, ATP luminescence, mouse fibroblasts (AID 2010); format: functional;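 also: cells exposed to compound for about 90 hours before reading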
# [3] = Vero cell cytotoxicity, dose response, cytotoxicity control for Vif-APOBEC3G degradation inhibitor project, Vero cells (AID 1117358); format: functional; conditions: Human immunodeficiency virus 1, Vero
# [4] = target: Mitogen-activated protein kinase 10 (Homo sapiens, UniProt P53779); assay: Dose response biochemical screening assay for inhibitors of c-Jun N-Terminal Kinase 3 (JNK3). [Related pubchem assays: 746 ]
# [5] = target: E3 ubiquitin-protein ligase Mdm2 (Homo sapiens, UniProt Q00987); assay: enhancers of MDM2-luciferase reporter signal, concentration-effect titration, project on inhibitors of MDM2 ubiquitin ligase, cellular assay, luminescent readout, 384-well plate format (AID 1394); format: functional;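 also: MDM2 E3 inhibitors raise luminescence so EC50 is for signal enhancement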
# Protein Tat = Protein Tat (Human immunodeficiency virus type 1 group M subtype B (isolate HXB2)(HIV-1), UniProt P04608); format: functional;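 also: tat binding to TAR RNA read out by fluorescence polarization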
# [6] = target: Glutathione-S-transferase (Schistosoma japonicum, UniProt Q26513); assay: biotin-GST/anti-GST TR-FRET signal inhibitors, dose response, artefact control for Vif-APOBEC3G degradation inhibitor project, biochemical (AID 1117362); format: functional
# [7] = target: Induced myeloid leukemia cell differentiation protein Mcl-1 (Homo sapiens, UniProt Q07820); format: functional
# [8] = target: Peroxisome proliferator-activated receptor gamma/Nuclear receptor coactivator 1 (Homo sapiens, UniProt P37231); format: functional;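 also: agonist potency as compounds enhance coactivator SRC-1 recruitment to PPARgamma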
# [9] = target: Peroxisome proliferator-activated receptor gamma/Nuclear receptor coactivator 3 (Homo sapiens, UniProt P37231); format: functional;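 also: agonist potency for raising coactivator recruitment to the receptor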
# [10] = target: Ubiquitin carboxyl-terminal hydrolase BAP1 (Homo sapiens, UniProt Q92560); assay: BAP1 deubiquitinase inhibitors, dose response, biochemical (AID 714); format: functional
# [11] = target: Peroxisome proliferator-activated receptor gamma/Nuclear receptor coactivator 2 (Homo sapiens, UniProt P37231); format: functional;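 also: agonist potency for raising coactivator recruitment to the receptor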
# Caspase-9 = Caspase-9 (Homo sapiens, UniProt P55211); assay: caspase-9 enzyme inhibition, dose response, selectivity assay for caspase-6 inhibitor project, biochemical, fluorescence, plate reader, cherry-picked samples (AID 743293)
# [12] = target: T1, RNA-binding protein pos-1 (Caenorhabditis elegans, UniProt G5EF15); assay: inhibitors of POS-1/mex-3 RNA binding, dose response, biochemical, fluorescence polarization (AID 1964);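 also: purified POS-1 fused to maltose binding protein made in E. coli; potency of compounds blocking POS-1 binding to fluorescent RNA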
# T1 sequence (G5EF15 whole entry): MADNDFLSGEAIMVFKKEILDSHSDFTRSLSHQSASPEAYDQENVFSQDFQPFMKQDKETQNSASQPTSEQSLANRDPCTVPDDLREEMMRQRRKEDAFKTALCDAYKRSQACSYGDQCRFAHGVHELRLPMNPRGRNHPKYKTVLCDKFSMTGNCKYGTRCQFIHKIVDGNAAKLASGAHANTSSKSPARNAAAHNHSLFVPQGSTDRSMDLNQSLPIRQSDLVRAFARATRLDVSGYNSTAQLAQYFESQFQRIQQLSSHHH
# [13] = target: 1-phosphatidylinositol 4,5-bisphosphate phosphodiesterase gamma-1 (Homo sapiens, UniProt P19174); assay: Counterscreen for inhibitors of phospholipase C isozymes (PLC-B3): Fluorescence-based biochemical high throughput dose response assay to identify inhibitors of phospholipase C isozymes (PLC-gamma1).
# [14] = target: DNA (cytosine-5)-methyltransferase 1 (Homo sapiens, UniProt P26358); assay: DNMT1 methyltransferase inhibitors, confirmation, biochemical, fluorescent molecular beacon (AID 602386); format: functional
# [15] = target: RNA-editing ligase 1, mitochondrial (Trypanosoma brucei brucei, UniProt P86926); assay: TbREL1 ligase inhibitors, dose response, biochemical, fluorescence, Trypanosoma brucei (AID 1117295); format: functional
# [16] = target: T2, Histone-lysine N-methyltransferase NSD2 (Homo sapiens, UniProt O96028); format: biochemical
# T2 sequence (O96028 whole entry): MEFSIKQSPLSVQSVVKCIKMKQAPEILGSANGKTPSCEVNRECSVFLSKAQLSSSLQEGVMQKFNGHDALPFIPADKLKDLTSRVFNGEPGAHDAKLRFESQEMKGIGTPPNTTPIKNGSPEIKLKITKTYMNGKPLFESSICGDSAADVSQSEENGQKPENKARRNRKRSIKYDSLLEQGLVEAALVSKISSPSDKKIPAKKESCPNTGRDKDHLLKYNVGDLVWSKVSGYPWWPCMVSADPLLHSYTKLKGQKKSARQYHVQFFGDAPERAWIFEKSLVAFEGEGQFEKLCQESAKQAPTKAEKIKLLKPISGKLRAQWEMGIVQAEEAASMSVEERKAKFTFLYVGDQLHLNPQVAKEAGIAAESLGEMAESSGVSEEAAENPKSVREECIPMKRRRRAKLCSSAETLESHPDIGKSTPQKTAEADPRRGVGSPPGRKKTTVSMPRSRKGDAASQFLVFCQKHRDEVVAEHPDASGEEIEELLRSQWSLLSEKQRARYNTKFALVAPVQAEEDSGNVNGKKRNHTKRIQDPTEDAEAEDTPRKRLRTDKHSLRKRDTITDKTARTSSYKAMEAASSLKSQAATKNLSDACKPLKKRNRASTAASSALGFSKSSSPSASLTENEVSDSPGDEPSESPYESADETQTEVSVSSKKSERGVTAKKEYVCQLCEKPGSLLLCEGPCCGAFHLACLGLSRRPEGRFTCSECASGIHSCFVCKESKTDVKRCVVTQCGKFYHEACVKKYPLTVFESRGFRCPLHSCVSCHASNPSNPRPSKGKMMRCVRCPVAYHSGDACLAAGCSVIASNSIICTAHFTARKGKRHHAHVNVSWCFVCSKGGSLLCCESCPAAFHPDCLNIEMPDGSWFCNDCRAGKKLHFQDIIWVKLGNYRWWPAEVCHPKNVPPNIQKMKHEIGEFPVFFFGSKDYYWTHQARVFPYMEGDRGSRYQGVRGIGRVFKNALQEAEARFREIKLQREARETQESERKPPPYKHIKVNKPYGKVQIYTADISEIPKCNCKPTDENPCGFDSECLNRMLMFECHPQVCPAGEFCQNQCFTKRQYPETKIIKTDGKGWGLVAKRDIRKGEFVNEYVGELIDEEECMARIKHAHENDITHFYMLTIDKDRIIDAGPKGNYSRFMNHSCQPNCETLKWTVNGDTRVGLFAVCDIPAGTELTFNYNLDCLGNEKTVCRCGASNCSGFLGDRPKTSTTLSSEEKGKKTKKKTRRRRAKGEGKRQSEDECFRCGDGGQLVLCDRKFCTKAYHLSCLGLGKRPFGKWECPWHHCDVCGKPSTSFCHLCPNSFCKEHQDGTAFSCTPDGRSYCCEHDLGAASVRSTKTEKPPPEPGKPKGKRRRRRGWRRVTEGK
# [17] = target: T3, Zinc finger protein mex-5 (Caenorhabditis elegans, UniProt Q9XUB2); assay: MEX-5/TCR-2 RNA interaction inhibitors, dose response, biochemical, C. elegans, fluorescence polarization (AID 1960)
# T3 sequence (Q9XUB2 whole entry): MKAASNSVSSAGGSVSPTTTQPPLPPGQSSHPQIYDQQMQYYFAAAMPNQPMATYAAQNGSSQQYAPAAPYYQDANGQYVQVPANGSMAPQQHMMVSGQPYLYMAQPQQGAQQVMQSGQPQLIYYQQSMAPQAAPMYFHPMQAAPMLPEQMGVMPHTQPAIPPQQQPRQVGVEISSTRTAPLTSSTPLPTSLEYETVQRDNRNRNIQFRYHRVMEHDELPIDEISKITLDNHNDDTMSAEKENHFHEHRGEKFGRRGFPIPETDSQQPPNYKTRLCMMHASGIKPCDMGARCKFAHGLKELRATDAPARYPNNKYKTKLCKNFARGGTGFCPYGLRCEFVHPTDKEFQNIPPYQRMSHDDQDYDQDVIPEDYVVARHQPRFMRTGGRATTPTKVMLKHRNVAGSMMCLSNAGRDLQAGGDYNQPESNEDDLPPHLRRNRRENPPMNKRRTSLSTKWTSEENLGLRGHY
# [18] = target: 1-phosphatidylinositol 4,5-bisphosphate phosphodiesterase beta-3 (Homo sapiens, UniProt Q01970); assay: Fluorescence-based biochemical high throughput dose response assay to identify inhibitors of phospholipase C isozymes (PLC-B3).
# Caspase-6 = Caspase-6 (Homo sapiens, UniProt P55212); assay: human caspase-6 inhibitors, dose response, biochemical, VEID-R110 fluorescence, cherry-pick (AID 720632)
# NADPH oxidase 1 = NADPH oxidase 1 (Homo sapiens, UniProt Q9Y5S8); assay: Late-stage luminescence-based cell-based dose response assay to identify inhibitors of NADPH oxidase 1 (NOX1): Purchased analogs 2.; format: functional
# [19] = inhibitors of Vif binding to APOBEC3G peptide, primary screen, biochemical, TR-FRET, GST-Vif 1-94, biotin-A3G peptide, dose response retest (AID 1117319); format: functional;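 also: TR-FRET signal of purified GST-Vif binding a biotinylated A3G peptide; inhibitors lower the FRET signal by blocking Vif and A3G binding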
# [20] = target: Photoreceptor-specific nuclear receptor (Homo sapiens, UniProt Q9Y5X4); assay: NR2E3 inverse agonists, dose response, biochemical, TR-FRET (AID 463256); format: functional
# [21] = target: Peroxisome proliferator-activated receptor gamma/Nuclear receptor corepressor 2 (Homo sapiens, UniProt P37231+Q9Y618); assay: Counterscreen for NR2E3 inverse agonists: TR-FRET-based biochemical high throughput dose response assay to identify inverse agonists of the interaction between peroxisome proliferator-activated receptor gamma (PPARg) and nuclear receptor co-repressor 2 (NCOR2).; format: functional
# [22] = target: G-protein coupled receptor 55 (Homo sapiens, UniProt Q9Y2T6); assay: GPR55 agonists via beta-arrestin recruitment, primary screen, imaging, U2OS cells, beta-arrestin-GFP redistribution (AID 1961); format: functional
# [23] = microbe, parasite or virus in culture; format: functional; conditions: Mycobacterium tuberculosis
# [24] = M. tuberculosis growth inhibition, HTS (AID 449762); format: functional
# D(3) dopamine receptor = D(3) dopamine receptor (Homo sapiens, UniProt P35462); assay: Counterscreening of D4 Antagonists against Dopamine 3 DRD3 (Human), Confirmatory Assay.; format: functional
# D(2) dopamine receptor [25] = target: T4, D(2) dopamine receptor (Homo sapiens, UniProt P14416); assay: D2L dopamine receptor antagonism, confirmation, counter-screen for D4 antagonist project, cell-based, D2L isoform, human (AID 743377); format: functional
# D(2) dopamine receptor [26] = target: T4, D(2) dopamine receptor; assay: Counterscreening of D4 Antagonists against Dopamine 2S (Human), Confirmatory Assay.; format: functional
# D(1B) dopamine receptor = D(1B) dopamine receptor (Homo sapiens, UniProt P21918); assay: Counterscreening of D4 Antagonists against Dopamine 5 DRD5 (Human), Confirmatory Assay.; format: functional
# D(1A) dopamine receptor = D(1A) dopamine receptor (Homo sapiens, UniProt P21728); assay: Counterscreening of D4 Antagonists against Dopamine 1 (Human), Confirmatory Assay.; format: functional
# [27] = target: G-protein coupled receptor 183 (Homo sapiens, UniProt P32249); assay: SAR confirmation of small molecule antagonists of the EBI2 receptor via a luminescent beta-arrestin assa.; format: functional
# [28] = P. falciparum Dd2 growth inhibitors, dose response, SYBR Green, dry powder samples, set 9 (AID 1159568); format: functional, cell-based
# [29] = target: Bifunctional protein GlmU (Mycobacterium tuberculosis, UniProt P9WMN3); assay: Inhibitors of Mycobacterial Glucosamine-1-phosphate acetyl transferase (GlmU). Secondary screen.; set-up: species or system Mycobacterium tuberculosis H37Rv
# Chain of Bifunctional protein GlmU (P9WMN3 whole entry): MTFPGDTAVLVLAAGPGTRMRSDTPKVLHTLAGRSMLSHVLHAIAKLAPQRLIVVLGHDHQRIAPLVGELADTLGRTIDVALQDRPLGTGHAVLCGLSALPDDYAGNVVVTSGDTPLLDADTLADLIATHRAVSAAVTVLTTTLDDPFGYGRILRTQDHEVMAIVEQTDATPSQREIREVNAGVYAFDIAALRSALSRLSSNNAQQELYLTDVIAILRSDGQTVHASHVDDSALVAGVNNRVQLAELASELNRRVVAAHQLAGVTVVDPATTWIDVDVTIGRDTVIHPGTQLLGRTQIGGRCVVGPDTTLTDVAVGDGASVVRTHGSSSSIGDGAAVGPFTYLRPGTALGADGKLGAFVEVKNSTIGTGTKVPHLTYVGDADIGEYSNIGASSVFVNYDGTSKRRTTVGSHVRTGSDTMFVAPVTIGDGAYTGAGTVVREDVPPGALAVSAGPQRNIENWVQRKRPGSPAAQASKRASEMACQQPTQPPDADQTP
# T4 sequence (P14416 whole entry, canonical isoform): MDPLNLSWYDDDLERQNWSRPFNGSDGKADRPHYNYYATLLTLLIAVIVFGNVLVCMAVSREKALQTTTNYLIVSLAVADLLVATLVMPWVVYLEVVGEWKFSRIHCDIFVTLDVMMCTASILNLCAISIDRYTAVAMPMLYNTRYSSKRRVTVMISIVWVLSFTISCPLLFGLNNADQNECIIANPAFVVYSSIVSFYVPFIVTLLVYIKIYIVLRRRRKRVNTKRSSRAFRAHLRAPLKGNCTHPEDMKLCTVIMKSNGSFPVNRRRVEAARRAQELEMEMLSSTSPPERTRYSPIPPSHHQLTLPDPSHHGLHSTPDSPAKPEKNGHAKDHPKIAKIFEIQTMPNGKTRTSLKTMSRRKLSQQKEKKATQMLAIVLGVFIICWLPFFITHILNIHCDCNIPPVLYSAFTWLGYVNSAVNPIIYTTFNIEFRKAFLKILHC
# Chain of Induced myeloid leukemia cell differentiation protein Mcl-1 (Q07820 whole entry): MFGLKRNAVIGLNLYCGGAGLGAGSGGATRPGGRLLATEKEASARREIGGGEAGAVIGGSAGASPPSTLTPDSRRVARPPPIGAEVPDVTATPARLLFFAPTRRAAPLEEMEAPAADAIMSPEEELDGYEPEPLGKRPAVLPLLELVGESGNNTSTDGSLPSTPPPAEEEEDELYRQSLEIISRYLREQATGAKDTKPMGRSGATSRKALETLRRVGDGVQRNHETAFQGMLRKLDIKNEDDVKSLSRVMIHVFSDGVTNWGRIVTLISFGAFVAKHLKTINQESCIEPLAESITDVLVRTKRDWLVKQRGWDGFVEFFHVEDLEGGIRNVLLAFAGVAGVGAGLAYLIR
# Chain of G-protein coupled receptor 55 (Q9Y2T6 whole entry): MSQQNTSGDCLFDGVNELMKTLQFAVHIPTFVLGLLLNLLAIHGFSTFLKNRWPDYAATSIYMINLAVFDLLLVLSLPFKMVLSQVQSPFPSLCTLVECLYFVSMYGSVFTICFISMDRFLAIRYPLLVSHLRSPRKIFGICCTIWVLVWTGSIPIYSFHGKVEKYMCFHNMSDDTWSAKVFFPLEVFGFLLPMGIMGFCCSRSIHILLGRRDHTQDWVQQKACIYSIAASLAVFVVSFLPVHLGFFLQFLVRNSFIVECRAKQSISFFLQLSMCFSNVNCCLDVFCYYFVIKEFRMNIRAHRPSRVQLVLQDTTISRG
# Chain of 1-phosphatidylinositol 4,5-bisphosphate phosphodiesterase beta-3 (Q01970 whole entry): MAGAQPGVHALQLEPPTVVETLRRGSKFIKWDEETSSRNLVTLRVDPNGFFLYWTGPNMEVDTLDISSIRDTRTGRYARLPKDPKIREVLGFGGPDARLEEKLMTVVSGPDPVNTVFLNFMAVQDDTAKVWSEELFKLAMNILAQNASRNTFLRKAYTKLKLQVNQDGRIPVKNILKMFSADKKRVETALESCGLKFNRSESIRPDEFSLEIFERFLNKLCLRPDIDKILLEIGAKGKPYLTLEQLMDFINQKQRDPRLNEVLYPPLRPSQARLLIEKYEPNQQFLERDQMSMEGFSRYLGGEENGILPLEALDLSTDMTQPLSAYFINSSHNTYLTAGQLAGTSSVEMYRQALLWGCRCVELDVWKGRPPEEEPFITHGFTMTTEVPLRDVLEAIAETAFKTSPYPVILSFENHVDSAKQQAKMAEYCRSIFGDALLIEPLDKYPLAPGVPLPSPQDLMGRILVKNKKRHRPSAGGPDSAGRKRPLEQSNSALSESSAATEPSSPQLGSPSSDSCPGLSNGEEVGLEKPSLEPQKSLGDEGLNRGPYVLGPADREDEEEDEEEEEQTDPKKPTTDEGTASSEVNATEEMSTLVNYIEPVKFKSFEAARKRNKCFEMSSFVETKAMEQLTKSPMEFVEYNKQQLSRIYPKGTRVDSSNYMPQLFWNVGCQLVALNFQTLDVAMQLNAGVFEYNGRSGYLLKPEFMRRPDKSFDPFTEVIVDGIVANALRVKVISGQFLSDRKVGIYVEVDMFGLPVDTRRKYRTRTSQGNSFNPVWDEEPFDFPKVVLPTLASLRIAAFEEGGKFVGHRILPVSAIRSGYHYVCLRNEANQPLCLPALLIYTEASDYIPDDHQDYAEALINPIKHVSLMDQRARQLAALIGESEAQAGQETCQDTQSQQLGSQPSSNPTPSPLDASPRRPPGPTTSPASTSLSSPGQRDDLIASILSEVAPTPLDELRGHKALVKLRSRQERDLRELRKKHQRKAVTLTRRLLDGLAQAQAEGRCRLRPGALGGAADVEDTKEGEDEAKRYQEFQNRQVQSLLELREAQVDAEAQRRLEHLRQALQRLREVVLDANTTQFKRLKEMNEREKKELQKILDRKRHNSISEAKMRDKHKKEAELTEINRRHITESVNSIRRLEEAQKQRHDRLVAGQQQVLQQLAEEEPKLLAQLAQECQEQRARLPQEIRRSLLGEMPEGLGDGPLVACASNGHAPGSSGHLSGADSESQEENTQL
# Chain of DNA (cytosine-5)-methyltransferase 1 (P26358 whole entry): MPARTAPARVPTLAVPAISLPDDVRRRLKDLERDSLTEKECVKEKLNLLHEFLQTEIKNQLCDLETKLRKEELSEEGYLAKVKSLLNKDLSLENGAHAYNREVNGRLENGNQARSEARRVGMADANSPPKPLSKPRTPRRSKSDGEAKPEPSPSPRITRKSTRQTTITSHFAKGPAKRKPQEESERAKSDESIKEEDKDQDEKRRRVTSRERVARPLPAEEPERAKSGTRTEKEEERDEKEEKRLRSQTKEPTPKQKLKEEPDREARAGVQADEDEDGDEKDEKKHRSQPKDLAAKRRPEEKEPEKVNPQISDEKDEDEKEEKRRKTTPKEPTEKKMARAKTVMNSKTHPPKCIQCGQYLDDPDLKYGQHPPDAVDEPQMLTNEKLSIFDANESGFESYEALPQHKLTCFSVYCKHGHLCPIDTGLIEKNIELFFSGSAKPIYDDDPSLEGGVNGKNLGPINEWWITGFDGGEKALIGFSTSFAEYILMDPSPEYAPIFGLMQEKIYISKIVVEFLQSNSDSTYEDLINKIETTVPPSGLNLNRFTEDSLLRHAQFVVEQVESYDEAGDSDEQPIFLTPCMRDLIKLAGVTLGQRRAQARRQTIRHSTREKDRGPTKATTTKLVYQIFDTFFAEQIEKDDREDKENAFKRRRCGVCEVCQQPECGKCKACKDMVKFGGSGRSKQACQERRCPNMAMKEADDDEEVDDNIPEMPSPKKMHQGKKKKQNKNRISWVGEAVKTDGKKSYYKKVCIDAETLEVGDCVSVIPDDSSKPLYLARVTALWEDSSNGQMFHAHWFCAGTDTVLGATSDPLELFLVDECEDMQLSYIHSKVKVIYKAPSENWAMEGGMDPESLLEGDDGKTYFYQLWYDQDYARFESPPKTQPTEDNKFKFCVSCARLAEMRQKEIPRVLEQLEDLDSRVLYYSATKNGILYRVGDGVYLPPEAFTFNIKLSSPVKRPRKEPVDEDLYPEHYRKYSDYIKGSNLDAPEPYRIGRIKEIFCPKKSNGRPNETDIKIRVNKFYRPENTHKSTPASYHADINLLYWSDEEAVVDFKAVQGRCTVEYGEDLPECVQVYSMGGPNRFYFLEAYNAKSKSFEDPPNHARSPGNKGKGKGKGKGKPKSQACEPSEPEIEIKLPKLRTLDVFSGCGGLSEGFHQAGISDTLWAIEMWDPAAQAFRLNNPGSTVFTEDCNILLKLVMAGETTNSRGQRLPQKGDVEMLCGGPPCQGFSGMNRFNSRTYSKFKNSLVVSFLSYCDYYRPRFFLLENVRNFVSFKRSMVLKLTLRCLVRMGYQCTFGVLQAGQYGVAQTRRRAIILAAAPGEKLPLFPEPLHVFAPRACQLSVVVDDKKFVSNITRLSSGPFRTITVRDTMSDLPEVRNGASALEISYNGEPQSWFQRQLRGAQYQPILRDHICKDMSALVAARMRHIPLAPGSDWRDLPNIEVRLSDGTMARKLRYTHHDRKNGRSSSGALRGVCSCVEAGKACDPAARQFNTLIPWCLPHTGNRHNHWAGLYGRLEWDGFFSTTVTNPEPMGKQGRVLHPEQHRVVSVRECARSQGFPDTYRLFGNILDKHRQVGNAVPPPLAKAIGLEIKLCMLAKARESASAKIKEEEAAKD
# Chain of D(1B) dopamine receptor (P21918 whole entry): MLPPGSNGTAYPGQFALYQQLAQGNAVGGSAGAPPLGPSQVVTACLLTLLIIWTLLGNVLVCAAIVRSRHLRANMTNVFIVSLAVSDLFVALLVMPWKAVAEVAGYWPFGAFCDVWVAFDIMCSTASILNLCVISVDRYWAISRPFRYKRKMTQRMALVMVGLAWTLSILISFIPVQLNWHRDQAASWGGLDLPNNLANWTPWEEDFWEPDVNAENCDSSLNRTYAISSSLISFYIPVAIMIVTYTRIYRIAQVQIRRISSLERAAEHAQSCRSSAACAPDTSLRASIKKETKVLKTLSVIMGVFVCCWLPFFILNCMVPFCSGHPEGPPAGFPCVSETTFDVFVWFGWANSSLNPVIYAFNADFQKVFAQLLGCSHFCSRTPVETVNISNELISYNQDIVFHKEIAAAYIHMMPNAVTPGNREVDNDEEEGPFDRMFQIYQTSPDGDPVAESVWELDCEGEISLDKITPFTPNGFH
# Chain of Protein Tat (P04608 whole entry): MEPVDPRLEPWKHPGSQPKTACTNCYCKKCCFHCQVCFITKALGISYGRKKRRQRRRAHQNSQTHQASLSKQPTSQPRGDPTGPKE
structure (smiles),measurement,setting,value
Cc1nnc(SCc2ccc(Cl)cc2)nc1/C=C/N(C)C,EC50,[1],0.66 µM (active)
same,EC50,Transthyretin,> 167 µM (inactive)
same,EC50,[2],> 60 µM (not active)
O=C(c1ccco1)N(CCC(c1ccccc1)c1ccco1)Cc1ccc(F)cc1 (stereo not drawn),CC50,[3],> 40 µM (active)
Cc1oc2ccc(OCC(N)=O)cc2c1C(=O)OC(C)C,IC50,[4],44.9 µM (not active)
Cc1ccc(-n2c(C)cc(C=C3C(=O)CC(C)(C)CC3=O)c2C)cc1,EC50,[5],17.4 µM (not active)
CC1=Nc2cccc3cccc(c23)N1,IC50,Protein Tat,> 100 µM (inconclusive)
same,IC50,[6],> 100 µM (active)
same,IC50,[7],3.71 µM (active)
CCc1nc(SCC(=O)Nc2ccc3c(c2)OCCO3)c2oc3ccccc3c2n1,EC50,[8],> 79.4 µM (not active)
same,EC50,[9],> 79.4 µM (not active)
same,IC50,[10],13.9 µM (active)
same,EC50,[11],23.3 µM (not active)
Nc1cc(S(=O)(=O)O)cc([N+](=O)[O-])c1O,AC50,Caspase-9,> 70 µM (inactive)
same,EC50,[12],> 300 µM (not active)
same,IC50,[13],3.97 µM (active)
same,IC50,[14],3.2 µM (active)
same,IC50,[15],4.99 µM (active)
same,AC50,[16],16.3 µM (active)
same,EC50,[17],> 300 µM (not active)
same,IC50,[18],> 123 µM (inactive)
same,AC50,Caspase-6,3.5 µM (active)
O=C(Oc1ccccc1)c1cc2cc([N+](=O)[O-])ccc2s1,IC50,NADPH oxidase 1,> 17 µM (not active)
COc1ccc(Nc2nc(N)nc(CSC(=S)N3CCN(c4ccccc4)CC3)n2)cc1,IC50,[19],> 100 µM (active)
COc1cccc2sc(NC(=O)c3ccc(Br)s3)nc12,IC50,[20],3.41 µM (active)
same,IC50,[21],2.95 µM (active)
same,EC50,[22],> 32 µM (inactive)
COc1ccccc1/C=N/NC(=O)NC12CC3CC(CC(C3)C1)C2,CC50,[23],> 40 µM (active)
same,IC50,[24],> 100 µM (active)
COc1ccc(CN2CCO[C@@H](CCc3ccccc3)C2)cc1,IC50,D(3) dopamine receptor,8.17 µM (active)
same,IC50,D(2) dopamine receptor [25],16.5 µM (active)
same,IC50,D(2) dopamine receptor [26],20 µM (inactive)
same,IC50,D(1B) dopamine receptor,20 µM (inactive)
same,IC50,D(1A) dopamine receptor,20 µM (inactive)
O=C(/C=C/c1ccc(F)cc1)N1CCN(S(=O)(=O)c2ccc(Br)cc2)CC1,IC50,[27],0.00343 µM (active)
COc1ccc(NC(=O)N2CCCCN3[C@H](CO)[C@@H](c4ccc(-c5ccccc5F)cc4)[C@H]3C2)cc1,AC50,[28],1.81 µM (active)
O=C1OCC2OC(O)C(O)C(O)C2OC(=O)c2cc(O)c(O)c(O)c2-c2c(O)c(O)c3oc(=O)c4c(c(O)c(O)c5oc(=O)c2c3c54)-c2c1cc(O)c(O)c2O (stereo not drawn),IC50,[7],1.56 µM (active)
same,IC50,[29],< 1 µM (active)

# Source: ChEMBL document CHEMBL1201862, “PubChem BioAssay data set” (2004)
